In the supplement of paper PMC9663587:

Legend:
[1] = compound: T1, CC(=O)c1c(C)c2cnc(Nc3ccc(N4CCN(CCOCCOCCOCCNC(=O)COc5cccc6c5C(=O)N(C5CCC(=O)NC5=O)C6=O)CC4)cn3)nc2n(C2CCCC2)c1=O [BSJ-03-123]
[2] = compound: Cc1cc(Nc2ncc(Cl)c(Nc3ccccc3S(=O)(=O)C(C)C)n2)c(OC(C)C)cc1C1CCNCC1 [Ceritinib/LDK378]
[3] = compound: Cc1nc(-c2cn3c(n2)-c2ccc(-c4cnn(C(C)(C)C(N)=O)c4)cc2OCC3)n(C(C)C)n1 [Taselisib/GDC0032]
[4] = compound: Cc1nc(Nc2ncc(C(=O)Nc3c(C)cccc3Cl)s2)cc(N2CCN(CCO)CC2)n1 [Dasatinib]
[5] = compound: CC(=O)Nc1cccc(-n2c(=O)n(C3CC3)c(=O)c3c(Nc4ccc(I)cc4F)n(C)c(=O)c(C)c32)c1
[6] = compound: O=C(CCCCCCC(=O)Nc1ccccc1)NO [Vorinostat]
[7] = compound: CO[C@@H](C)Cn1c(=O)n(C)c2cnc3ccc(-c4cncc(C(C)(C)O)c4)cc3c21
[8] = compound: T2, CCOc1cc2ncc(C#N)c(Nc3ccc(OCc4ccccn4)c(Cl)c3)c2cc1NC(=O)/C=C/CN(C)C [Neratinib/HKI272]
[9] = compound: CNCc1ccc(-c2[nH]c3cc(F)cc4c3c2CCNC4=O)cc1 [Rucaparib]
[10] = compound: CN(C)C/C=C/C(=O)Nc1ccc(O[C@@H]2CCC[C@@H](Nc3ncc(Cl)c(-c4c[nH]c5ccccc45)n3)C2)cc1 [BSJ-01-175]
[11] = compound: CNC(=O)c1cccc(-c2ccc3c(N4CCOC[C@@H]4C)nc(N4CCOC[C@@H]4C)nc3n2)c1 [AZD2014]
[12] = compound: COc1cccc2c1C(=O)c1c(O)c3c(c(O)c1C2=O)C[C@@](O)(C(=O)CO)C[C@@H]3O[C@H]1C[C@H](N)[C@H](O)[C@H](C)O1 [Doxorubicin]
[13] = compound: CC[C@@H]1C(=O)N(C)c2cnc(Nc3ccc(C(=O)N[C@H]4CC[C@H](N5CCN(CC6CC6)CC5)CC4)cc3OC)nc2N1C(C)C [Volasertib/BI6727]
[14] = compound: CC(=O)c1c(C)c2cnc(Nc3ccc(N4CCNCC4)cn3)nc2n(C2CCCC2)c1=O
[15] = compound: CC(C)n1nc(-c2ccc3oc(N)nc3c2)c2c(N)ncnc21 [INK128/MLN0128]
[16] = compound: T3, CN(C)C/C=C/C(=O)Nc1ccc(C(=O)N2CCC[C@@H](Nc3ncc(Cl)c(-c4c[nH]c5ccccc45)n3)C2)cc1 [THZ531]
[17] = compound: T1, BSJ-03-123; assay: increase in dead-cell fraction, 72 h; higher = more death;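 note: breast cancer cell lines in 384-well plates, stained with Hoechst plus LIVE/DEAD far red dye and imaged, cells above an LDR intensity threshold counted dead, Hoechst-negative corpses included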
[18] = compound: T2, Neratinib/HKI272; assay: as above
[19] = compound: CCc1cnn2c(NCc3ccc[n+]([O-])c3)cc(N3CCCC[C@H]3CCO)nc12; assay: as above
[20] = compound: C=CC(=O)Nc1ccc(C(=O)Nc2[nH]nc3c2CN(C(=O)N[C@H](CN(C)C)c2ccccc2)C3(C)C)cc1 [YKL-5-124]; assay: as above
[21] = compound: CN(C)C/C=C/C(=O)Nc1ccc(C(=O)Nc2cccc(Nc3ncc(Cl)c(-c4c[nH]c5ccccc45)n3)c2)cc1 [THZ1]; assay: as above
[22] = compound: T3, THZ531; assay: as above
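Throughout, for GR50, 72 h: breast cancer and non-malignant breast epithelial cell lines, Deep Dye Drop or Dye Drop imaging, nine half-log doses, GR normalized to time-zero plates and DMSO-only controls.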

## 184A1
[1]
  GR50, 72 h: 0.00892 µM
[2]
  GR50, 72 h: 1 µM
[3]
  GR50, 72 h: 0.192 µM
[4]
  GR50, 72 h: 0.756 µM
[5]
  GR50, 72 h: 0.00069 µM
[6]
  GR50, 72 h: 2.52 µM
[7]
  GR50, 72 h: 0.00147 µM
[8]
  GR50, 72 h: 0.0293 µM
[9]
  GR50, 72 h: > 10 µM
[10]
  GR50, 72 h: 0.00519 µM
[11]
  GR50, 72 h: 0.00164 µM
[12]
  GR50, 72 h: 0.00333 µM
[13]
  GR50, 72 h: 0.0124 µM
[14]
  GR50, 72 h: 0.0897 µM
[15]
  GR50, 72 h: 0.00892 µM
[16]
  GR50, 72 h: 0.269 µM
[17]; 0.001 µM
  increase in dead-cell fraction: 0.0061
[17]; 0.003162 µM
  increase in dead-cell fraction: 0.0101
[17]; 0.01 µM
  increase in dead-cell fraction: 0.0181
[17]; 0.03162 µM
  increase in dead-cell fraction: 0.0097
[17]; 0.1 µM
  increase in dead-cell fraction: 0.0423
[17]; 0.3162 µM
  increase in dead-cell fraction: 0.0318
[17]; 1 µM
  increase in dead-cell fraction: 0.0505
[17]; 3.162 µM
  increase in dead-cell fraction: 0.0581
[17]; 10 µM
  increase in dead-cell fraction: 0.179
[18]; 0.0003162 µM
  increase in dead-cell fraction: -0.004
[18]; 0.001 µM
  increase in dead-cell fraction: -0.0007
[18]; 0.003162 µM
  increase in dead-cell fraction: -0.0029
[18]; 0.01 µM
  increase in dead-cell fraction: 0.001
[18]; 0.03162 µM
  increase in dead-cell fraction: 0.0214
[18]; 0.1 µM
  increase in dead-cell fraction: 0.0256
[18]; 0.3162 µM
  increase in dead-cell fraction: 0.0311
[18]; 1 µM
  increase in dead-cell fraction: 0.028
[18]; 3.162 µM
  increase in dead-cell fraction: 0.0419
[19]; 0.0001 µM
  increase in dead-cell fraction: -0.0039
[19]; 0.0003162 µM
  increase in dead-cell fraction: -0.0006
[19]; 0.001 µM
  increase in dead-cell fraction: -0.0027
[19]; 0.003162 µM
  increase in dead-cell fraction: -0.0019
[19]; 0.01 µM
  increase in dead-cell fraction: 0.0164
[19]; 0.03162 µM
  increase in dead-cell fraction: 0.277
[19]; 0.1 µM
  increase in dead-cell fraction: 0.127
[19]; 0.3162 µM
  increase in dead-cell fraction: 0.363
[19]; 1 µM
  increase in dead-cell fraction: 0.368
[20]; 0.001 µM
  increase in dead-cell fraction: 0.02
[20]; 0.003162 µM
  increase in dead-cell fraction: 0.0379
[20]; 0.01 µM
  increase in dead-cell fraction: 0.119
[20]; 0.03162 µM
  increase in dead-cell fraction: 0.122
[20]; 0.1 µM
  increase in dead-cell fraction: 0.147
[20]; 0.3162 µM
  increase in dead-cell fraction: 0.0805
[20]; 1 µM
  increase in dead-cell fraction: 0.137
[20]; 3.162 µM
  increase in dead-cell fraction: 0.179
[20]; 10 µM
  increase in dead-cell fraction: 0.34
[21]; 0.0001 µM
  increase in dead-cell fraction: -0.0006
[21]; 0.0003162 µM
  increase in dead-cell fraction: 0.0038
[21]; 0.001 µM
  increase in dead-cell fraction: 0.0021
[21]; 0.003162 µM
  increase in dead-cell fraction: 0.0076
[21]; 0.01 µM
  increase in dead-cell fraction: 0.0448
[21]; 0.03162 µM
  increase in dead-cell fraction: 0.169
[21]; 0.1 µM
  increase in dead-cell fraction: 0.175
[21]; 0.3162 µM
  increase in dead-cell fraction: 0.152
[22]; 0.0001 µM
  increase in dead-cell fraction: 0.0016
[22]; 0.0003162 µM
  increase in dead-cell fraction: 0.0042
[22]; 0.001 µM
  increase in dead-cell fraction: 0.0042
[22]; 0.003162 µM
  increase in dead-cell fraction: 0.0053
[22]; 0.01 µM
  increase in dead-cell fraction: -0.004
[22]; 0.03162 µM
  increase in dead-cell fraction: 0.0024
[22]; 0.1 µM
  increase in dead-cell fraction: 0.0107
[22]; 0.3162 µM
  increase in dead-cell fraction: 0.0204
[22]; 1 µM
  increase in dead-cell fraction: 0.447

## MDAMB330
[1]
  GR50, 72 h: 0.297 µM
[2]
  GR50, 72 h: 1.13 µM
[3]
  GR50, 72 h: 0.00814 µM
[4]
  GR50, 72 h: > 10 µM
[5]
  GR50, 72 h: 0.138 µM
[6]
  GR50, 72 h: 1.55 µM
[7]
  GR50, 72 h: < 0.001 µM
[8]
  GR50, 72 h: 0.00221 µM
[9]
  GR50, 72 h: 8.69 µM
[10]
  GR50, 72 h: 0.00635 µM
[11]
  GR50, 72 h: < 0.001 µM
[12]
  GR50, 72 h: 0.00368 µM
[13]
  GR50, 72 h: 0.0032 µM
[14]
  GR50, 72 h: 0.0198 µM
[15]
  GR50, 72 h: 0.00601 µM
[16]
  GR50, 72 h: 0.0247 µM
[17]; 0.001 µM
  increase in dead-cell fraction: 0.0018
[17]; 0.003162 µM
  increase in dead-cell fraction: 0.0001
[17]; 0.01 µM
  increase in dead-cell fraction: 0.0015
[17]; 0.03162 µM
  increase in dead-cell fraction: 0.003
[17]; 0.1 µM
  increase in dead-cell fraction: 0.0019
[17]; 0.3162 µM
  increase in dead-cell fraction: 0.0031
[17]; 1 µM
  increase in dead-cell fraction: 0.0019
[17]; 3.162 µM
  increase in dead-cell fraction: 0.0034
[17]; 10 µM
  increase in dead-cell fraction: 0.0354
[18]; 0.0003162 µM
  increase in dead-cell fraction: -0.0001
[18]; 0.001 µM
  increase in dead-cell fraction: 0.0011
[18]; 0.003162 µM
  increase in dead-cell fraction: 0.0102
[18]; 0.01 µM
  increase in dead-cell fraction: 0.043
[18]; 0.03162 µM
  increase in dead-cell fraction: 0.0716
[18]; 0.1 µM
  increase in dead-cell fraction: 0.0731
[18]; 0.3162 µM
  increase in dead-cell fraction: 0.0685
[18]; 1 µM
  increase in dead-cell fraction: 0.0784
[18]; 3.162 µM
  increase in dead-cell fraction: 0.0756
[19]; 0.0001 µM
  increase in dead-cell fraction: -0.0012
[19]; 0.0003162 µM
  increase in dead-cell fraction: -0.0001
[19]; 0.001 µM
  increase in dead-cell fraction: 0.0032
[19]; 0.003162 µM
  increase in dead-cell fraction: 0.0022
[19]; 0.01 µM
  increase in dead-cell fraction: 0.0023
[19]; 0.03162 µM
  increase in dead-cell fraction: 0.0691
[20]; 0.001 µM
  increase in dead-cell fraction: 0.0025
[20]; 0.003162 µM
  increase in dead-cell fraction: 0.0078
[20]; 0.01 µM
  increase in dead-cell fraction: 0.0057
[20]; 0.03162 µM
  increase in dead-cell fraction: 0.0038
[20]; 0.1 µM
  increase in dead-cell fraction: 0.0034
[20]; 0.3162 µM
  increase in dead-cell fraction: 0.0041
[20]; 1 µM
  increase in dead-cell fraction: 0.0016
[20]; 3.162 µM
  increase in dead-cell fraction: 0.0166
[20]; 10 µM
  increase in dead-cell fraction: 0.131
[21]; 0.0001 µM
  increase in dead-cell fraction: 0.0016
[21]; 0.0003162 µM
  increase in dead-cell fraction: 0.0039
[21]; 0.001 µM
  increase in dead-cell fraction: 0.0043
[21]; 0.003162 µM
  increase in dead-cell fraction: 0.0044
[21]; 0.01 µM
  increase in dead-cell fraction: 0.0071
[21]; 0.03162 µM
  increase in dead-cell fraction: 0.105
[21]; 0.1 µM
  increase in dead-cell fraction: 0.359
[21]; 0.3162 µM
  increase in dead-cell fraction: 0.389
[21]; 1 µM
  increase in dead-cell fraction: 0.311
[22]; 0.0001 µM
  increase in dead-cell fraction: 0.0039
[22]; 0.0003162 µM
  increase in dead-cell fraction: -0.0007
[22]; 0.001 µM
  increase in dead-cell fraction: 0.0004
[22]; 0.003162 µM
  increase in dead-cell fraction: 0.0018
[22]; 0.01 µM
  increase in dead-cell fraction: 0.0041
[22]; 0.03162 µM
  increase in dead-cell fraction: 0.0164
[22]; 0.1 µM
  increase in dead-cell fraction: 0.664
[22]; 0.3162 µM
  increase in dead-cell fraction: 0.519
[22]; 1 µM
  increase in dead-cell fraction: 0.413
